Results on 22 molecules are retold here after patent US20230257351A1, “SUBSTITUTED N-[…] HAVING P2X4 RECEPTOR ANTAGONISTIC ACTIVITY” (Bayer Aktiengesellschaft, priority 2020, published 2023).

pIC50: −log10 of the molar value.

The target in this assay is T1, human P2X4 (Homo sapiens, UniProt Q99571).
T1 construct: expressed in transfected cells
T1 sequence (Q99571 1-388): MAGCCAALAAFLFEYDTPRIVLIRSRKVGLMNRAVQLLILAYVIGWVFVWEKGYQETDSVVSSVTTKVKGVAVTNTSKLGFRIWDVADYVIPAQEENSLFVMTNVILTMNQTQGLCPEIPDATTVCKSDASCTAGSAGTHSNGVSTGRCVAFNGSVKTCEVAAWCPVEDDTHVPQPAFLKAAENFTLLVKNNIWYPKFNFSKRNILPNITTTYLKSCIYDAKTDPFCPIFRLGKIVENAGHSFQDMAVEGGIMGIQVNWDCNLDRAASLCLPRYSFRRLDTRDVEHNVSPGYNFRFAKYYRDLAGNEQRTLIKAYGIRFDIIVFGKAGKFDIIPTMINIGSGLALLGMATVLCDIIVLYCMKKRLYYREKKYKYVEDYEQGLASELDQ
Nature of the assay: Human P2X4 HEK Cell FLIPR Assay. It counts as cell-based. Particulars: HEK293 stably expressing human P2X4, agonist Bz-ATP 3 μM (EC80); for pIC50: read-out: Human P2X4 HEK Cells (FLIPR Assay) avg IC50. The procedure: Compounds were tested on a HEK293 cell line stably expressing human P2X4. Cells were cultured on poly-D-lysine-coated 384-well plates at a density of 15,000 cells/well and incubated overnight at 37° C., 5% CO2. P2X4 function was assessed by measuring intracellular calcium fluxes caused by Benzoylbenzoyl-ATP (Bz-ATP) using the calcium-chelating dye Fluo8-AM (Molecular Devices) with the Fluorescent Imaging Plate Reader Tetra (FLIPR^Tetra; Molecular Devices CA). On the day of the assay, the medium was removed and the cells were incubated for 30 min at 37° C. and 5% CO2 in 30 μl of dye buffer (Hank's balanced salt solution, 10 mM HEPES, 1.8 mM CaCl2, 1 mM MgCl2, 2 mM probenecid, 5 mM D-glucose monohydrate, 5 μM Fluo8-AM, pH=7.4). Compounds diluted in probenecid buffer (Hank's balanced salt solution, 10 mM HEPES, 1.8 mM CaCl2, 1 mM MgCl2, 2 mM probenecid, 5 mM D-glucose monohydrate, pH=7.4) at ten concentrations ranging from 25 μM to 1 nM (final concentration) were dispensed and incubated for 30 min at room temperature. […] The final assay volume was 50 μl and final DMSO concentration was 0.5%.
The fluorescence intensity reflecting intracellular calcium changes was recorded before and after Bz-ATP addition, at an excitation and emission wavelengths of 470-495 nm and 515-575 nm respectively.
The compounds were tested in triplicates and fluorescence intensity raw data normalized to the agonist control and fitted to the four-parameter logistic equation:
Y=Bottom+(Top−Bottom)/(1+10^((Log IC50−X)*HillSlope))
Assay plate acceptance was based on the signal window (S/B)[…] and the reference compound pIC50 within ±3σ the mean of historic pIC50 of the compound. Failure to meet two of the three criteria determined exclusion of the plate's results.

On to `COc1ccc(N(C(C)=O)c2cc(NC(=O)Cc3ccc(F)cc3Cl)ccn2)cc1F` [Example 78, N-{4-[2-(2-chloro-4-fluorophenyl)acetamido]pyridin-2-yl}-N-(3-fluoro-4-methoxyphenyl)acetamide], for which the “Human P2X4 HEK Cells (FLIPR Assay) avg Efficacy” value (“Human P2X4 HEK Cells” for short) is on record as 94% and the pIC50 was 6.24.
Taken in the same sequence, the figures for `CC(=O)N(c1ccc(S(C)(=O)=O)c(F)c1)c1cc(NC(=O)Cc2cccc(F)c2Cl)ccn1` [Example 81, N-{4-[2-(2-chloro-3-fluorophenyl)acetamido]pyridin-2-yl}-N-[3-fluoro-4-(methanesulfonyl)phenyl]acetamide] were 97% and 6.05.
Taken in the same sequence, the figures for `CC(=O)N(c1ccc(S(C)(=O)=O)c(F)c1)c1cc(NC(=O)Cc2c(Cl)cccc2Cl)ccn1` [Example 82, N-{4-[2-(2,6-dichlorophenyl)acetamido]pyridin-2-yl}-N-[3-fluoro-4-(methanesulfonyl)phenyl]acetamide] were 97% and 6.30.
As to `CC(=O)N(c1cc(F)c(C)c(F)c1)c1cc(NC(=O)Cc2ccccc2Cl)ccn1` [Example 92, N-{4-[2-(2-chlorophenyl)acetamido]pyridin-2-yl}-N-(3,5-difluoro-4-methylphenyl)acetamide], the “Human P2X4 HEK Cells” value was 97% and the pIC50 is 6.25.
In the case of `CC(=O)N(c1cc(F)c(C)c(F)c1)c1cc(NC(=O)Cc2ccc(F)cc2Cl)ccn1` [Example 93, N-{4-[2-(2-chloro-4-fluorophenyl)acetamido]pyridin-2-yl}-N-(3,5-difluoro-4-methylphenyl)acetamide], the “Human P2X4 HEK Cells” value came out at 98% and the pIC50 is 6.15.
Consider `CC(=O)N(c1cc(F)c(C)c(F)c1)c1cc(NC(=O)Cc2cccc(F)c2Cl)ccn1` [Example 94, N-{4-[2-(2-chloro-3-fluorophenyl)acetamido]pyridin-2-yl}-N-(3,5-difluoro-4-methylphenyl)acetamide], for which the “Human P2X4 HEK Cells” value was 97% and the negative logarithm of the IC50 (pIC50) is 6.15.
The corresponding values for `CC(=O)N(c1cc(F)c(C)c(F)c1)c1cc(NC(=O)Cc2c(Cl)cccc2Cl)ccn1` [Example 95, N-{4-[2-(2,6-dichlorophenyl)acetamido]pyridin-2-yl}-N-(3,5-difluoro-4-methylphenyl)acetamide] are 100% and 6.16.
Taken in the same sequence, the figures for `COc1c(F)cc(N(C(C)=O)c2cc(NC(=O)Cc3ccccc3Cl)ccn2)cc1F` [Example 96, N-{4-[2-(2-chlorophenyl)acetamido]pyridin-2-yl}-N-(3,5-difluoro-4-methoxyphenyl)acetamide] were 89% and 6.44.
Taken in the same sequence, the figures for `COc1c(F)cc(N(C(C)=O)c2cc(NC(=O)Cc3ccc(F)cc3Cl)ccn2)cc1F` [Example 97, N-{4-[2-(2-chloro-4-fluorophenyl)acetamido]pyridin-2-yl}-N-(3,5-difluoro-4-methoxyphenyl)acetamide] were 89% and 6.34.
For the molecule `COc1c(F)cc(N(C(C)=O)c2cc(NC(=O)Cc3cccc(F)c3Cl)ccn2)cc1F` [Example 98, N-{4-[2-(2-chloro-3-fluorophenyl)acetamido]pyridin-2-yl}-N-(3,5-difluoro-4-methoxyphenyl)acetamide], the “Human P2X4 HEK Cells” value is 92% and the pIC50 is 6.53.
The corresponding values for `COc1c(F)cc(N(C(C)=O)c2cc(NC(=O)Cc3c(Cl)cccc3Cl)ccn2)cc1F` [Example 99, N-{4-[2-(2,6-dichlorophenyl)acetamido]pyridin-2-yl}-N-(3,5-difluoro-4-methoxyphenyl)acetamide] are 95% and 6.35.
Turning to `CC(=O)N(c1cccc(OC(F)(F)F)c1)c1cc(NC(=O)Cc2ccccc2Cl)ccn1` [Example 102, N-{4-[2-(2-chlorophenyl)acetamido]pyridin-2-yl}-N-[3-(trifluoromethoxy)phenyl]acetamide], the “Human P2X4 HEK Cells” value came out at 99% and the pIC50 was 6.03.
Regarding `COc1cc(N(C(C)=O)c2cc(NC(=O)Cc3cccc(F)c3Cl)ccn2)ccc1F` [Example 103, N-{4-[2-(2-chloro-3-fluorophenyl)acetamido]pyridin-2-yl}-N-(4-fluoro-3-methoxyphenyl)acetamide], the “Human P2X4 HEK Cells” value was found to be 97% and the pIC50 is 6.12.
Taken in the same sequence, the figures for `COc1cc(N(C(C)=O)c2cc(NC(=O)Cc3c(Cl)cccc3Cl)ccn2)ccc1F` [Example 104, N-{4-[2-(2,6-dichlorophenyl)acetamido]pyridin-2-yl}-N-(4-fluoro-3-methoxyphenyl)acetamide] were 96% and 6.07.
For the molecule `CC(=O)N(c1cc(NC(=O)Cc2cccc(C(F)(F)F)c2Cl)ccn1)c1ccccc1Cl` [Example 105, N-(2-chlorophenyl)-N-(4-{2-[2-chloro-3-(trifluoromethyl)phenyl]acetamido}pyridin-2-yl)acetamide], the “Human P2X4 HEK Cells” value is given as 100% and the pIC50 is 6.11.
Taken in the same sequence, the figures for `CC(=O)N(c1cc(NC(=O)Cc2ccccc2Cl)ccn1)c1ccccc1Cl` [Example 106, N-(2-chlorophenyl)-N-{4-[2-(2-chlorophenyl)acetamido]pyridin-2-yl}acetamide] were 95% and 6.12.
The corresponding values for `CC(=O)N(c1cc(NC(=O)Cc2ccc(F)cc2Cl)ccn1)c1ccccc1Cl` [Example 107, N-{4-[2-(2-chloro-4-fluorophenyl)acetamido]pyridin-2-yl}-N-(2-chlorophenyl)acetamide] are 98% and 6.26.
Taken in the same sequence, the figures for `CC(=O)N(c1cc(NC(=O)Cc2cccc(F)c2Cl)ccn1)c1ccccc1Cl` [Example 108, N-{4-[2-(2-chloro-3-fluorophenyl)acetamido]pyridin-2-yl}-N-(2-chlorophenyl)acetamide] were 97% and 6.11.
As to `CC(=O)N(c1cc(NC(=O)Cc2c(Cl)cccc2Cl)ccn1)c1ccccc1Cl` [Example 109, N-(2-chlorophenyl)-N-{4-[2-(2,6-dichlorophenyl)acetamido]pyridin-2-yl}acetamide], the “Human P2X4 HEK Cells” value is given as 100% and the pIC50 is 6.19.
Taken in the same sequence, the figures for `CC(=O)N(c1cc(NC(=O)Cc2cccc(C(F)(F)F)c2Cl)ccn1)c1cc(F)ccc1Cl` [Example 110, N-(2-chloro-5-fluorophenyl)-N-(4-{2-[2-chloro-3-(trifluoromethyl)phenyl]acetamido}pyridin-2-yl)acetamide] were 95% and 6.13.
Taken in the same sequence, the figures for `CC(=O)N(c1cc(NC(=O)Cc2ccccc2Cl)ccn1)c1ccccc1F` [Example 115, N-{4-[2-(2-chlorophenyl)acetamido]pyridin-2-yl}-N-(2-fluorophenyl)acetamide] were 96% and 6.41.
Taken in the same sequence, the figures for `CC(=O)N(c1cc(NC(=O)Cc2ccc(F)cc2Cl)ccn1)c1ccccc1F` [Example 116, N-{4-[2-(2-chloro-4-fluorophenyl)acetamido]pyridin-2-yl}-N-(2-fluorophenyl)acetamide] were 97% and 6.28.

What is called pIC50 is the IC50 on a negative log10 scale, so that one unit is a factor of ten.
